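Each compound was tested at five concentrations against cells in 96-well plates for 48 hours. GI50 marks 50% less growth. TGI: total growth inhibition.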
Tests used:
Assay in all cases: DTP human tumour cell line panel, 48 h
OVCAR-4 ovarian = test system: OVCAR-4 ovarian
786-0 renal = test system: 786-0 renal
PC-3 prostate = test system: PC-3 prostate
U251 CNS = test system: U251 CNS
CAKI-1 renal = test system: CAKI-1 renal
OVCAR-3 ovarian = test system: OVCAR-3 ovarian
MDA-N = test system: MDA-N
HOP-62 NSCLC = test system: HOP-62 NSCLC
HT29 colon = test system: HT29 colon
HS 578T breast = test system: HS 578T breast
HCC-2998 colon = test system: HCC-2998 colon
NCI-H522 lung = test system: NCI-H522 lung

| Compound | TGI (OVCAR-4 ovarian) | TGI (786-0 renal) | TGI (PC-3 prostate) | TGI (U251 CNS) | TGI (CAKI-1 renal) | TGI (OVCAR-3 ovarian) | TGI (MDA-N) | TGI (HOP-62 NSCLC) | TGI (HT29 colon) | TGI (HS 578T breast) | TGI (HCC-2998 colon) | TGI (NCI-H522 lung) | GI50 (OVCAR-4 ovarian) | GI50 (OVCAR-3 ovarian) | GI50 (NCI-H522 lung) |
| --- | --- | --- | --- | --- | --- | --- | --- | --- | --- | --- | --- | --- | --- | --- | --- |
| O=C(c1ccccc1)N1CCC(CC2(c3cc4ccccc4[nH]3)OCCO2)CC1 | > 100 µM | 34.7 µM | > 100 µM | > 100 µM | > 100 µM | > 100 µM | 87.5 µM | > 100 µM | 85.9 µM | – | – | – | – | – | – |
| CC(=O)OCC(=O)OC[C@H](OCc1ccccc1)[C@@H]1[C@H](OC(C)=O)C(=O)N1Cc1ccccc1 | > 100 µM | > 100 µM | > 100 µM | > 100 µM | – | > 100 µM | > 100 µM | > 100 µM | > 100 µM | > 100 µM | – | – | – | – | – |
| CC(=O)NC(NCCN)(c1ccccc1)c1ccccc1 | > 100 µM | > 100 µM | – | > 100 µM | – | – | – | > 100 µM | > 100 µM | > 100 µM | > 100 µM | – | – | – | – |
| COc1ccc(OC)c2c1C=CC(Br)=CC2 | > 1 µM | 0.544 µM | > 1 µM | > 1 µM | 0.913 µM | > 1 µM | 0.529 µM | 0.915 µM | 0.284 µM | > 1 µM | 0.449 µM | 0.579 µM | – | – | – |
| CC(Nc1ccc(Cl)c(Cl)c1)c1ccncc1 (stereo not drawn) | > 100 µM | 60.5 µM | 75.2 µM | 46.2 µM | 97.8 µM | 84.3 µM | 66.6 µM | 49.7 µM | 72.4 µM | – | – | 37 µM | – | – | – |
| CCOC(=O)NC(Nc1ccc(F)cc1)(C(=O)OCC)C(F)(F)F (stereo not drawn) | > 100 µM | > 100 µM | > 100 µM | > 100 µM | > 100 µM | > 100 µM | > 100 µM | > 100 µM | > 100 µM | > 100 µM | > 100 µM | > 100 µM | – | – | – |
| O=C1CC(CC(=O)c2ccc(Br)cc2)C(=O)/C1=C(/O)c1ccc(Br)cc1 (stereo not drawn) | – | > 100 µM | > 100 µM | > 100 µM | > 100 µM | > 100 µM | > 100 µM | > 100 µM | > 100 µM | > 100 µM | > 100 µM | > 100 µM | – | – | – |
| O=Cc1cc(C(=O)OCc2ccccc2)n(S(=O)(=O)c2ccccc2)c1 | > 100 µM | > 100 µM | 53.6 µM | – | 55.2 µM | 35.6 µM | 30.3 µM | 33.7 µM | 48.4 µM | 49.2 µM | 33.7 µM | > 100 µM | – | – | – |
| CSc1nc2c(c(=O)n1C)N=C(c1ccc([N+](=O)[O-])cc1)CC(c1ccccc1)N2 (stereo not drawn) | > 100 µM | > 100 µM | > 100 µM | > 100 µM | > 100 µM | > 100 µM | – | > 100 µM | > 100 µM | – | > 100 µM | > 100 µM | – | – | – |
| CCOP(=O)(OCC)C(C(=O)OC)C(=O)C(=O)Nc1cccc(O)c1 (stereo not drawn) | > 100 µM | > 100 µM | > 100 µM | > 100 µM | > 100 µM | > 100 µM | > 100 µM | > 100 µM | > 100 µM | > 100 µM | > 100 µM | > 100 µM | – | – | – |
| CCOC(=O)c1nc2ccc(C(F)(F)F)cc2nc1NCc1ccc(OC)c(OC)c1 | > 100 µM | > 100 µM | > 100 µM | > 100 µM | > 100 µM | > 100 µM | > 100 µM | > 100 µM | > 100 µM | > 100 µM | – | > 100 µM | – | – | – |
| COc1cccc(C2c3cc4c(cc3OC(NNS(=O)(=O)c3ccc(C)cc3)C2C)OCO4)c1OC (stereo not drawn) | – | 68.3 µM | 92.4 µM | 16.9 µM | 8.56 µM | 4.55 µM | > 100 µM | 9.06 µM | 13.9 µM | 21.1 µM | > 100 µM | 8.61 µM | – | – | – |
| COc1cc2c(c(OC)c1OC)-c1ccc(SC)c(=O)cc1[C@@H](O)CC2 | > 100 µM | > 100 µM | – | – | > 100 µM | – | 0.000318 µM | > 100 µM | 0.0703 µM | – | > 100 µM | – | > 100 µM | 0.000322 µM | 0.0116 µM |
| [B-][P+](CC[P+]1([B-])[C@@H](C)[C@@H](O)[C@H](O)[C@@H]1C)(c1ccccc1)c1ccccc1OC (stereo partly drawn) | 31.7 µM | 60.8 µM | 35.6 µM | 30.6 µM | 30.4 µM | 31 µM | 29.6 µM | 33.6 µM | 40.6 µM | 22.6 µM | – | 26.2 µM | – | – | – |
| CC(=O)OCC1OC(n2c3c(c(-c4ccc(Cl)cc4)c(C#N)c2=S)CCCC3)C(OC(C)=O)C(OC(C)=O)C1OC(C)=O (stereo not drawn) | > 100 µM | > 100 µM | 69.1 µM | > 100 µM | – | > 100 µM | > 100 µM | > 100 µM | > 100 µM | – | > 100 µM | > 100 µM | – | – | – |
| COc1ccccc1C(O)[C@@H]1C[C@@H]2[C@H]3CC[C@@](C)([C@@H]2O1)C3(C)C (stereo partly drawn) | – | 32.7 µM | 45.2 µM | 32.1 µM | 56.4 µM | 31.3 µM | 32 µM | 35.1 µM | 39.1 µM | 35.3 µM | 41.8 µM | 38.5 µM | – | – | – |
| O=C1NN(Cc2ccccc2)C(=O)N2CCC[C@@H]12 | > 100 µM | > 100 µM | > 100 µM | – | > 100 µM | > 100 µM | > 100 µM | > 100 µM | > 100 µM | > 100 µM | > 100 µM | – | – | – | – |
| Nc1ncnc2c1ncn2C1CCC(CP(=O)(O)O)C1 (stereo not drawn) | > 100 µM | > 100 µM | > 100 µM | > 100 µM | – | > 100 µM | > 100 µM | > 100 µM | > 100 µM | > 100 µM | > 100 µM | – | – | – | – |
| CN(CCCNC(=O)c1cn(C)c2c1Cc1ccccc1-2)CCCNC(=O)c1cn(C)c2c1Cc1ccccc1-2 | 26.8 µM | 17.9 µM | 22.7 µM | 20.2 µM | 28.4 µM | 31.3 µM | 12.3 µM | 29.2 µM | 5.7 µM | 25.2 µM | – | – | – | – | – |
| CCC1(c2ccc(N3C(=O)c4cc(OC)c(OC)cc4C3=O)cc2)CCC(=O)NC1=O (stereo not drawn) | > 10 µM | > 10 µM | > 10 µM | > 10 µM | > 10 µM | > 10 µM | > 10 µM | > 10 µM | > 10 µM | > 10 µM | > 10 µM | – | – | – | – |
